Results taken from article PMC9403976, “Elucidating the path to Plasmodium prolyl-tRNA synthetase inhibitors that overcome halofuginone resistance” (Nature Communications, 2022).
Several values for one entry are separate records, joined by “and”; a condition that tells them apart may be missing. Equal values may be shown once. Read-outs that look alike come from different tables or passages of the source.

Key:
[1] = molecular target: HsProRS (Homo sapiens, UniProt P07814); test: TR-FRET ligand displacement assay with tracer MAT379 (CoraFluor-1-Halo and anti-His6 antibody formats); assay type: binding; set-up: made in house; host or cells: E. coli SoluBL-21; settings: for HsProRS % signal at 10 μM: no added proline/ATP (-)
[2] = molecular target: T1, PfcProRS (Plasmodium falciparum, UniProt Q8I5R7); assay type: binding; settings: replicates 1-3
T1 construct: made in house; host or cells: E. coli SoluBL-21

[3] = system: P. falciparum Dd2-2D4; test: P. falciparum asexual blood stage (ABS) growth assay, SYBR Green, 72 h, wild-type parasites; assay type: cell-based, Plasmodium falciparum; settings: Plasmodium falciparum, DD2; SI Fig 16b; values on -log scale; read-out: ABS - Dd2-2D4 (converted)
[4] = read-out: HsProRS IC50 + 100 μM proline, + 100 μM proline

Chain of HsProRS (P07814 996-1512): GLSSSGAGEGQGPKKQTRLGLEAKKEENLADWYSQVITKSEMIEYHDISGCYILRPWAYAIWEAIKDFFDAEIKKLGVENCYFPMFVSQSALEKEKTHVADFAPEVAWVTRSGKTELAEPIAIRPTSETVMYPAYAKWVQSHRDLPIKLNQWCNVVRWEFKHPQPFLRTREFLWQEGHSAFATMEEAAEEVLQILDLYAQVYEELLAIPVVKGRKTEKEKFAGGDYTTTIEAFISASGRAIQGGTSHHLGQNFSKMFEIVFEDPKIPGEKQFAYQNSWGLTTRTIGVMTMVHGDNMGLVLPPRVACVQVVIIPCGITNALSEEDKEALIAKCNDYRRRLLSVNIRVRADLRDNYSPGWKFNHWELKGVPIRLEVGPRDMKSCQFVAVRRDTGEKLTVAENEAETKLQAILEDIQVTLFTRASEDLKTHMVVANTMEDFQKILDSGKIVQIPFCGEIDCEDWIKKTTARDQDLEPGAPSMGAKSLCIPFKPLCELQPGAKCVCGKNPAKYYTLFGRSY
T1 sequence (Q8I5R7 249-746): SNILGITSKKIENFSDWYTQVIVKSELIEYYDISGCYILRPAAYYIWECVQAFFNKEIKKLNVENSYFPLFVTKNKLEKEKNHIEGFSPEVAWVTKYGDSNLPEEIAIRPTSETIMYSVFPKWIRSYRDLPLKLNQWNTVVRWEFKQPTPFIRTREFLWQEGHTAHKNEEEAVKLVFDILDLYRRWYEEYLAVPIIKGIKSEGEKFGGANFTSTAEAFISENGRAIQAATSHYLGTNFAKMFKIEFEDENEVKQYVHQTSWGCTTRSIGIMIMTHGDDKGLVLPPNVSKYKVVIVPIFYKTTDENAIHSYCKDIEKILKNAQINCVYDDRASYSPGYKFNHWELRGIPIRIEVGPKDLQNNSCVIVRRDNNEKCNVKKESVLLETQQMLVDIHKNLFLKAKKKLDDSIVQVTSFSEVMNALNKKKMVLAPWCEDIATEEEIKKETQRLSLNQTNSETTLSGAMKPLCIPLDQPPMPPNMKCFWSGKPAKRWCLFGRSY

Compound	IC50 [1]	HsProRS % signal at 10 μM, + 100 μM proline ([1]; + 100 μM proline)	HsProRS % signal at 10 μM [1]	IC50 [1, 4]	Normalized response, dose-response replicates (SI Fig 14) ([2]; Log[inhibitor] (M) -5.000)	Normalized response, dose-response replicates (SI Fig 14) ([2]; Log[inhibitor] (M) -5.301)	Normalized response, dose-response replicates (SI Fig 14) ([2]; Log[inhibitor] (M) -5.601)	Normalized response, dose-response replicates (SI Fig 14) ([2]; Log[inhibitor] (M) -5.904)	Normalized response, dose-response replicates (SI Fig 14) ([2]; Log[inhibitor] (M) -6.208)	Normalized response, dose-response replicates (SI Fig 14) ([2]; Log[inhibitor] (M) -6.509)	Normalized response, dose-response replicates (SI Fig 14) ([2]; Log[inhibitor] (M) -6.796)	Normalized response, dose-response replicates (SI Fig 14) ([2]; Log[inhibitor] (M) -7.108)	Normalized response, dose-response replicates (SI Fig 14) ([2]; Log[inhibitor] (M) -7.409)	Normalized response, dose-response replicates (SI Fig 14) ([2]; Log[inhibitor] (M) -7.710)	Normalized response, dose-response replicates (SI Fig 14) ([2]; Log[inhibitor] (M) -8.000)	Normalized response, dose-response replicates (SI Fig 14) ([2]; Log[inhibitor] (M) -8.301)	Normalized response, dose-response replicates (SI Fig 14) ([2]; Log[inhibitor] (M) -8.602)	Normalized response, dose-response replicates (SI Fig 14) ([2]; Log[inhibitor] (M) -9.000)	Normalized response, dose-response replicates (SI Fig 14) ([2]; Log[inhibitor] (M) -9.301)	EC50 [3]	also measured
Nc1nccnc1C(=O)NC1Cc2ccccc2C1 [compound 45]	> 10 µM	83.7%	90.2%	> 10 µM	9.00E-01 and 8.01E-01 and 8.09E-01	8.40E-01 and 9.11E-01 and 9.42E-01	1.06E+00 and 1.02E+00 and 9.65E-01	1.09E+00 (2×) and 1.04E+00	9.29E-01 and 9.65E-01 and 9.12E-01	8.69E-01 and 9.97E-01 and 9.91E-01	1.07E+00 and 1.10E+00 and 9.29E-01	1.07E+00 and 1.01E+00 and 9.62E-01	8.73E-01 and 9.86E-01 and 1.07E+00	9.54E-01 and 1.09E+00 and 1.02E+00	9.85E-01 and 1.09E+00 and 1.00E+00	1.09E+00 and 9.49E-01 and 9.81E-01	1.13E+00 and 9.21E-01 and 9.56E-01	1.01E+00 and 9.94E-01 and 8.80E-01	9.92E-01 (2×) and 9.81E-01	13.6 µM	
O=c1[nH]c2nccnc2c(=O)n1C1Cc2ccccc2C1 [compound 47]	> 10 µM		79.5%		3.53E-01 and 3.73E-01 and 3.10E-01	5.89E-01 and 4.94E-01 and 3.58E-01	7.17E-01 and 7.23E-01 and 6.31E-01	1.01E+00 and 8.61E-01 and 7.86E-01	1.02E+00 and 1.03E+00 and 9.13E-01	9.57E-01 and 9.63E-01 and 9.85E-01	1.08E+00 and 9.96E-01 and 1.07E+00	9.59E-01 and 1.12E+00 and 1.15E+00	1.11E+00 and 1.34E+00 and 1.10E+00	1.07E+00 (2×) and 1.12E+00	1.02E+00 and 1.00E+00 and 1.01E+00	1.13E+00 and 1.06E+00 and 1.10E+00	1.07E+00 and 9.89E-01 and 9.49E-01	9.68E-01 and 9.48E-01 and 1.08E+00	9.08E-01 and 1.04E+00 and 1.01E+00	11.1 µM	Kd ([1]; HsProRS (KD [nM]) + 100 μM proline mean, + 100 μM proline): 2650 nM
Nc1nccnc1C(=O)NC1CCCCC1 [compound 48]	> 10 µM	87.4%	89.6%	> 10 µM	7.98E-01 and 9.64E-01 and 8.59E-01	1.00E+00 and 9.90E-01 and 9.60E-01	1.12E+00 and 9.39E-01 and 1.04E+00	1.09E+00 and 1.16E+00 and 9.71E-01	1.14E+00 and 9.41E-01 and 1.00E+00	1.15E+00 and 1.05E+00 and 9.08E-01	9.89E-01 and 9.81E-01 and 1.09E+00	9.93E-01 and 1.12E+00 and 9.45E-01	1.04E+00 and 1.09E+00 and 1.06E+00	1.09E+00 and 9.79E-01 and 1.07E+00	1.09E+00 and 1.00E+00 and 1.03E+00	1.08E+00 and 1.10E+00 and 1.07E+00	1.05E+00 and 1.09E+00 and 1.03E+00	1.01E+00 and 1.14E+00 and 9.74E-01	1.02E+00 and 1.01E+00 and 1.04E+00	8.75 µM	
